Measured values from patent US20100068197A1, “PHARMACEUTICAL COMPOUNDS AS INHIBITORS OF CELL PROLIFERATION AND THE USE THEREOF” (Myriad Pharmaceuticals, Inc., priority 2008, published 2010).

How the values were obtained:
[1] = system: P388 murine leukemia cell line; assay: P388 cytotoxicity, cellular viability by ATP-Lite; type: cell-based; conditions: Mus musculus, P388, 72 h, compound concentration required to inhibit growth by 50%, intracellular ATP
Protocol: A P388 murine leukemia cell line was obtained from NCI, Frederick, Md. P388 cells were cultured in RPMI-1640 supplemented with 10% fetal bovine serum, 2 mM Glutamax, 1 mM sodium pyruvate, 0.1 mM non-essential amino acids and 10 mM HEPES. Cells were grown at 37° C. in a humidified 5% CO2 atmosphere. Exponentially growing P388 cells were plated at 5,000 cells/well in a 96-well flat-bottomed microtiter plate (Corning, Costar #3595). […] Cellular viability was determined 72 hours later by measuring intracellular ATP with ATP-Lite assay system. The effect of compounds on cell viability was calculated by comparing the ATP levels of cells exposed to test compound with those of cells exposed to DMSO. A semi-log plot of relative ATP levels versus compound concentration was used to calculate the compound concentration required to inhibit growth by 50% (IC50). Data was analyzed by Prism software (GraphPad; San Diego, Calif.) by fitting it to a sigmoidal dose response curve.

[2] = system: P388/ADR cell lines (overexpress the multidrug resistance pump MDR-1); assay: Multidrug resistant cell assay, cell viability by ATP-lite; type: cell-based, murine; conditions: Mus musculus, 72 h, multidrug resistant cells overexpressing MDR-1
Excerpt: Cytotoxicity of compounds in multidrug resistant cells can be determined by administering compounds to cell lines that overexpress the multidrug resistance pump MDR-1 and determining the viability of the cell lines. P388/ADR cell lines are known to overexpress the multidrug resistance pump MDR-1 (also known as P-glycoprotein-1; Pgp-1).
P388/ADR cell lines are obtained from American Type Culture Collection (Manassas, Va.) and maintained in RPMI-1640 media supplemented with 10% FCS, 10 units/mL penicillin and streptomycin, 2 mM Glutamax and 1 mM sodium pyruvate (Invitrogen Corporation, Carlsbad, Calif.). For compound testing, cells are plated in 96 well dishes at a concentration of 1.5×10^4 cells/well. Cells are allowed to adhere to the plate overnight and then incubated with compounds at final concentrations ranging from 0.13 nM to 10 μM for 72 hours. Cell viability is then assessed using the ATP-lite reagent (Perkin Elmer, Foster City, Calif.). Plates are read on a Wallac Topcount luminescence reader (Perkin Elmer, Foster City, Calif.) and the results graphed in Prism software (Graphpad Software, Inc., San Diego, Calif.). Non-linear regression with variable slope analysis is performed to obtain IC50 concentration values.

Row | IC50 [2] | Compound | IC50 [1]
1 | 160 nM | COC(=O)NCCNc1nc(N(C)c2ccc(OC)cc2)c2cc(C)ccc2n1 [Example 30, (2-{4-[(4-Methoxy-phenyl)-methyl-amino]-6-methyl-quinazolin-2-ylamino}-ethyl)-carbamic acid methyl ester] | 85 nM
2 | 1100 nM | COc1ccc(N(C)c2nc(NCCNC(=O)CNC(=O)OC(C)(C)C)nc3ccccc23)cc1 [Example 31, [(2-{4-[(4-Methoxy-phenyl)-methyl-amino]-quinazolin-2-ylamino}-ethylcarbamoyl)-methyl]-carbamic acid tert-butyl ester] | 1300 nM
3 | 300 nM | CCOC(=O)C(Nc1nc(N(C)c2ccc(OC)cc2)c2ccccc2n1)C(C)C (stereo not shown) [Example 32, 2-{4-[(4-Methoxy-phenyl)-methyl-amino]-quinazolin-2-ylamino}-3-methyl-butyric acid ethyl ester] | 240 nM
4 | 18 nM | COc1ccc(N(C)c2nc(NCCOC(=O)[C@@H](N)CC(N)=O)nc3ccccc23)cc1 [Example 33, (S)-2-Amino-succinamic acid 2-{4-[(4-methoxy-phenyl)-methyl-amino]-quinazolin-2-ylamino}-ethyl ester] | 17 nM
5 | 43 nM | COC(=O)[C@H](Cc1ccc(O)cc1)Nc1nc(N(C)c2ccc(OC)cc2)c2ccccc2n1 [Example 34, (S)-3-(4-Hydroxy-phenyl)-2-{4-[(4-methoxy-phenyl)-methyl-amino]-quinazolin-2-ylamino}-propionic acid methyl ester] | 36 nM
6 | 240 nM | COc1ccc(N(C)c2nc(NCCOC(=O)[C@H](N)Cc3c[nH]c4ccccc34)nc3ccccc23)cc1 [Example 35, (R)-2-Amino-3-(1H-indol-3-yl)-propionic acid 2-{4-[(4-methoxy-phenyl)-methyl-amino]-quinazolin-2-ylamino}-ethyl ester] | 220 nM
7 | 700 nM | COc1ccc(N(C)c2nc(N[C@@H](C)C(=O)O)nc3ccccc23)cc1 [Example 36, (S)-2-{4-[(4-Methoxy-phenyl)-methyl-amino]-quinazolin-2-ylamino}-propionic acid] | 780 nM
8 | 6600 nM | CNC(=O)NCCNc1nc(N(C)c2ccc(OC)cc2)c2cc(OC)ccc2n1 [Example 37, 1-(2-{6-Methoxy-4-[(4-methoxy-phenyl)-methyl-amino]-quinazolin-2-ylamino}-ethyl)-3-methyl-urea] | 4700 nM
9 | 53 nM | COC(=O)NCCNc1nc(N(C)c2ccc(OC)cc2)c2ccccc2n1 [Example 38, (2-{4-[(4-Methoxy-phenyl)-methyl-amino]-quinazolin-2-ylamino}-ethyl)-carbamic acid methyl ester] | 19 nM
10 | 600 nM | COc1ccc(N(C)c2nc(NCCNC(N)=O)nc3ccccc23)cc1 [Example 40, (2-{4-[(4-Methoxy-phenyl)-methyl-amino]-quinazolin-2-ylamino}-ethyl)-urea] | 500 nM
11 | 5300 nM | COc1ccc(N(C)c2nc(NCCNC(=O)CN)nc3ccccc23)cc1 [Example 41, 2-Amino-N-(2-{4-[(4-methoxy-phenyl)-methyl-amino]-quinazolin-2-ylamino}-ethyl)-acetamide] | 1700 nM
12 | 880 nM | COc1ccc(N(C)c2nc(NCC(O)CNc3nc(N(C)c4ccc(OC)cc4)c4ccccc4n3)nc3ccccc23)cc1 [Example 42, 1,3-Bis-{4-[(4-methoxy-phenyl)-methyl-amino]-quinazolin-2-ylamino}-propan-2-ol] | 680 nM
13 | 57 nM | COc1ccc(N(C)c2nc(NCC(O)CN)nc3ccccc23)cc1 (stereo not shown) [Example 44, 1-Amino-3-{4-[(4-methoxy-phenyl)-methyl-amino]-quinazolin-2-ylamino}-propan-2-ol] | 37 nM
14 | 1800 nM | COc1ccc(N(C)c2nc(CNS(=O)(=O)c3ccc(OC)cc3)nc3ccccc23)cc1 [Example 45, 4-Methoxy-N-{4-[(4-methoxy-phenyl)-methyl-amino]-quinazolin-2-ylmethyl}-benzenesulfonamide] | 1700 nM
15 | 27 nM | COc1ccc(N(C)c2nc(CNC(=O)OCc3ccccc3)nc3ccccc23)cc1 [Example 47, {4-[(4-Methoxy-phenyl)-methyl-amino]-quinazolin-2-ylmethyl}-carbamic acid benzyl ester] | 23 nM
16 | 83 nM | COc1ccc(N(C)c2nc(NCCCN(C)c3nc(N(C)c4ccc(OC)cc4)c4ccccc4n3)nc3ccccc23)cc1 [Example 48, 3-{4-[(4-Methoxy-phenyl)-methyl-amino]-quinazolin-2-ylamino}-1-({4-[(4-methoxy-phenyl)-methyl-amino]-quinazolin-2-yl}-methyl-amino)-propane] | 70 nM
17 | 13 nM | COc1ccc(N(C)c2nc(CNC(=O)OC(C)OC(=O)C(C)C)nc3ccccc23)cc1 (stereo not shown) [Example 49, Isobutyric acid 1-{4-[(4-methoxy-phenyl)-methyl-amino]-quinazolin-2-ylmethylcarbamoyloxy}-ethyl ester] | 5.5 nM
18 | 190 nM | COc1ccc(N(C)c2nc(CNC(=O)[C@H](C)NC(=O)OC(C)(C)C)nc3ccccc23)cc1 [Example 50, [(S)-1-({4-[(4-Methoxy-phenyl)-methyl-amino]-quinazolin-2-ylmethyl}-carbamoyl)-ethyl]-carbamic acid tent-butyl ester] | 180 nM
19 | 970 nM | COc1ccc(N(C)c2nc(CNC(=O)[C@H](CC(N)=O)NC(=O)OC(C)(C)C)nc3ccccc23)cc1 [Example 51, [(S)-2-Carbamoyl-1-({4-[(4-methoxy-phenyl)-methyl-amino]-quinazolin-2-ylmethyl}-carbamoyl)-ethyl]-carbamic acid tent-butyl ester] | 620 nM
20 | 680 nM | COc1ccc(N(C)c2nc(CNC(=O)[C@@H](C)NC(=O)OC(C)(C)C)nc3ccccc23)cc1 [Example 53, [(R)-1-({4-[(4-Methoxy-phenyl)-methyl-amino]-quinazolin-2-ylmethyl}-carbamoyl)-ethyl]-carbamic acid tert-butyl ester] | 457 nM
21 | 76 nM | COc1ccc(N(C)c2nc(CN(CCCO)Cc3nc(N(C)c4ccc(OC)cc4)c4ccccc4n3)nc3ccccc23)cc1 [Example 54, 3-(Bis-{4-[(4-methoxy-phenyl)-methyl-amino]-quinazolin-2-ylmethyl}-amino)-propan-1-ol] | 64 nM

Row | Compound | IC50 [2] | IC50 [1]
22 | COc1ccc(N(C)c2nc(CNC(=O)Oc3ccccc3)nc3ccc(F)cc23)cc1 [Example 43, {6-Fluoro-4-[(4-methoxy-phenyl)-methyl-amino]-quinazolin-2-ylmethyl}-carbamic acid phenyl ester] | 5.7 nM | 7.2 nM
23 | COc1ccc(N(C)c2nc(CNC(=O)OC(COC(C)=O)COC(C)=O)nc3ccccc23)cc1 [Example 55, Acetic acid 3-acetoxy-2-{4-[(4-methoxy-phenyl)-methyl-amino]-quinazolin-2-ylmethylcarbamoyloxy}-propyl ester] | 450 nM | 330 nM
